Converted amounts (≈) assume the structure as drawn.
Tests used:
[1] = test system: Pseudomonas aeruginosa; experiment: Antibacterial activity against Pseudomonas aeruginosa ATCC 27853 assessed as growth inhibition after 24 hr by serial broth dilution method; format: functional; conditions: ATCC 27853, 24 h
[2] = test system: Escherichia coli; experiment: Antibacterial activity against Escherichia coli ATCC 25922 assessed as growth inhibition at 70 ug/ml after 24 hr by Kirby-Bauer disk diffusion method; format: functional; conditions: ATCC 25922, 24 h, read-out: DIZ
[3] = test system: Bacillus subtilis; experiment: Antibacterial activity against Bacillus subtilis ATCC 11774 assessed as growth inhibition after 24 hr by serial broth dilution method; format: functional; conditions: ATCC 11774, 24 h
[4] = test system: Escherichia coli; experiment: Antibacterial activity against Escherichia coli ATCC 25922 assessed as initial concentration required for appearance of zone of inhibition after 24 hr; format: functional
[5] = test system: Pseudomonas aeruginosa; experiment: Antibacterial activity against Pseudomonas aeruginosa ATCC 27853 assessed as initial concentration required for appearance of zone of inhibition after 24 hr; format: functional
[6] = test system: Escherichia coli; experiment: Antibacterial activity against Escherichia coli ATCC 25922 assessed as growth inhibition after 24 hr by serial broth dilution method; format: functional; conditions: ATCC 25922, 24 h
[7] = test system: Staphylococcus aureus; experiment: Antibacterial activity against Staphylococcus aureus ATCC 25923 assessed as growth inhibition at 100 ug/ml after 24 hr by Kirby-Bauer disk diffusion method; format: functional; conditions: ATCC 25923, 24 h, read-out: DIZ
[8] = test system: Bacillus subtilis; experiment: Antibacterial activity against Bacillus subtilis ATCC 11774 assessed as growth inhibition at 300 ug/ml after 24 hr by Kirby-Bauer disk diffusion method; format: functional; conditions: ATCC 11774, 24 h, read-out: DIZ
[9] = test system: Bacillus subtilis; experiment: Antibacterial activity against Bacillus subtilis ATCC 11774 assessed as initial concentration required for appearance of zone of inhibition after 24 hr; format: functional
[10] = test system: Pseudomonas aeruginosa; experiment: Antibacterial activity against Pseudomonas aeruginosa ATCC 27853 assessed as growth inhibition at 100 ug/ml after 24 hr by Kirby-Bauer disk diffusion method; format: functional; conditions: ATCC 27853, 24 h, read-out: DIZ
[11] = test system: Staphylococcus aureus; experiment: Antibacterial activity against Staphylococcus aureus ATCC 25923 assessed as growth inhibition after 24 hr by serial broth dilution method; format: functional; conditions: ATCC 25923, 24 h
[12] = test system: Candida albicans; experiment: Antifungal activity against Candida albicans ATCC 66027 assessed as growth inhibition after 24 hr by serial broth dilution method; format: functional; conditions: ATCC 66027, 24 h
[13] = test system: Escherichia coli; experiment: microbe, parasite or virus in culture; conditions: ATCC 25922, 24 h, read-out: DIZ
Description: Antibacterial activity against Escherichia coli ATCC 25922 assessed as growth inhibition at 100 ug/ml after 24 hr by Kirby-Bauer disk diffusion method

[14] = test system: Candida albicans; experiment: Antifungal activity against Candida albicans ATCC 66027 assessed as growth inhibition at 300 ug/ml after 24 hr by Kirby-Bauer disk diffusion method; format: functional; conditions: ATCC 66027, 24 h, read-out: DIZ
[15] = test system: Escherichia coli; experiment: microbe, parasite or virus in culture; conditions: ATCC 25922, 24 h, read-out: DIZ; remark: listed apart in the source
Description: Antibacterial activity against Escherichia coli ATCC 25922 assessed as growth inhibition at 300 ug/ml after 24 hr by Kirby-Bauer disk diffusion method

[16] = test system: Staphylococcus aureus; experiment: Antibacterial activity against Staphylococcus aureus ATCC 25923 assessed as growth inhibition at 300 ug/ml after 24 hr by Kirby-Bauer disk diffusion method; format: functional; conditions: ATCC 25923, 24 h, read-out: DIZ
[17] = test system: Bacillus subtilis; experiment: Antibacterial activity against Bacillus subtilis ATCC 11774 assessed as growth inhibition at 100 ug/ml after 24 hr by Kirby-Bauer disk diffusion method; format: functional; conditions: ATCC 11774, 24 h, read-out: DIZ
[18] = test system: Pseudomonas aeruginosa; experiment: Antibacterial activity against Pseudomonas aeruginosa ATCC 27853 assessed as growth inhibition at 300 ug/ml after 24 hr by Kirby-Bauer disk diffusion method; format: functional; conditions: ATCC 27853, 24 h, read-out: DIZ
[19] = test system: Candida albicans; experiment: Antifungal activity against Candida albicans ATCC 66027 assessed as initial concentration required for appearance of zone of inhibition after 24 hr; format: functional
[20] = test system: Candida albicans; experiment: Antifungal activity against Candida albicans ATCC 66027 assessed as growth inhibition at 20 ug/ml after 24 hr by Kirby-Bauer disk diffusion method; format: functional; conditions: ATCC 66027, 24 h, read-out: DIZ
[21] = test system: Staphylococcus aureus; experiment: Antibacterial activity against Staphylococcus aureus ATCC 25923 assessed as initial concentration required for appearance of zone of inhibition after 24 hr; format: functional
[22] = test system: Candida albicans; experiment: Antifungal activity against Candida albicans ATCC 66027 assessed as growth inhibition at 100 ug/ml after 24 hr by Kirby-Bauer disk diffusion method; format: functional; conditions: ATCC 66027, 24 h, read-out: DIZ

- MIC [1]: 70 µg/mL (≈ 156 µM)
- MIC [3]: 100 µg/mL (≈ 222 µM)
- MIC [6]: 40 µg/mL (≈ 89 µM)
- MIC [11]: 100 µg/mL (≈ 222 µM)
- MIC [12]: 10 µg/mL (≈ 22.2 µM)
SMILES: CC1CCC(NC(=O)NCCn2c(-c3ccccc3)nc3ccc([N+](=O)[O-])cc3c2=O)CC1 (configuration not stated)
- zone of inhibition at 70 µg/mL [2]: 11 mm
- Activity [4]: 70 µg/mL
- Activity [5]: 70 µg/mL
- zone of inhibition at 100 µg/mL [7]: 11 mm
- zone of inhibition at 300 µg/mL [8]: 14 mm
- Activity [9]: 100 µg/mL
- zone of inhibition at 100 µg/mL [10]: 12 mm
- zone of inhibition at 100 µg/mL [13]: 13 mm
- zone of inhibition at 300 µg/mL [14]: 20 mm
- zone of inhibition at 300 µg/mL [15]: 17 mm
- zone of inhibition at 300 µg/mL [16]: 14 mm
- zone of inhibition at 100 µg/mL [17]: 11 mm
- zone of inhibition at 300 µg/mL [18]: 21 mm
- Activity [19]: 20 µg/mL
- zone of inhibition at 20 µg/mL [20]: 11 mm
- Activity [21]: 100 µg/mL
- zone of inhibition at 100 µg/mL [22]: 15 mm

Source: ChEMBL document CHEMBL3045273, “Synthesis, characterization, and pharmacological evaluation of 1-[2-(6-nitro-4-oxo-2-phenyl-4H-quinazolin-3-yl)-ethyl]-3-phenyl ureas” (2013)
